Target: Human IDO1 (Homo sapiens (Human), UniProt P14902)
Test: IDO Kynurenine Assay with Human IDO1/HEK293 Cells
Assay type: cell-based
Conditions: 20 hours incubation, kynurenine detected with Ehrlich reagent, absorbance at 490 nm, read-out: HEK Human IDO-1 IC50
Method: IDO Kynurenine Assay with Human IDO1/HEK293 Cells
Human IDO1/HEK293 cells were seeded at 10,000 cells per 50 uL per well with RPMI/phenol red free media contains 10% FBS in a 384-well black wall clear bottom tissue culture plate (Matrix Technologies LLC) 125 nL of certain concentration of compound was then added to each well using ECHO liquid handling systems. The cells were incubated for 20 hours in 37° C. incubator with 5% CO2.
The compound treatments were stopped by adding Trichloroacetic Acid (Sigma-Aldrich) to a final concentration at 0.2%. The cell plate was further incubated at 50° C. for 30 minute. The equal volume supernatant (20 uL) and 0.2% (w/v) Ehrlich reagent (4-dimethylaminobenzaldehyde, Sigma-Aldrich) in glacial acetic acid were mixed in a new clear bottom 384-well plate. This plate was then incubated at room temperature for 30 minute. The absorbance at 490 nm was measured on Envision plate reader.
Compound IC50 values were calculated using the counts of 500 nM of a reference standard treatment as one hundred percent inhibition, and counts of no compound but DMSO treatment as zero percent inhibition.

Human IDO1, sequence (P14902 whole entry): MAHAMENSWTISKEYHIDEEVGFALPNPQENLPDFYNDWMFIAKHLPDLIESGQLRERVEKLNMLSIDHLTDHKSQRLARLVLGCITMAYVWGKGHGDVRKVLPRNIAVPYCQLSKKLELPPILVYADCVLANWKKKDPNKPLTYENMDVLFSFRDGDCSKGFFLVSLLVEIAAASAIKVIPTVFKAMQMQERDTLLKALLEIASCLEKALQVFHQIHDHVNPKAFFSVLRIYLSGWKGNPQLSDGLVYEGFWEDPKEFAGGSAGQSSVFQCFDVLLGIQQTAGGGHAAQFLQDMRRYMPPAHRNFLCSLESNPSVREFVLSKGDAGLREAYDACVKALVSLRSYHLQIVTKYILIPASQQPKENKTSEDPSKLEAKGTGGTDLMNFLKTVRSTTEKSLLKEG

IC50 | SMILES
0.205 µM | Cc1ccc(NC(=O)Nc2cc(C3(CC(=O)O)COC3)ccc2N(CC(C)C)CC(C)C)cc1 [Example 2, 2-(3-(4-(diisobutylamino)-3-(3-(p-tolyl)ureido)phenyl)oxetan-3-yl)acetic acid]
0.001 µM | Cc1ccc(NC(=O)Nc2cc(C(C)CC(=O)O)ccc2N(CC(C)C)C2CCCCC2)cc1 (racemic) [Example 49, 3-(4-(cyclohexyl(isobutyl)amino)-3-(3-(p-tolyl)ureido)phenyl)butanoic acid]
0.087 µM | Cc1cc(NC(=O)Nc2cc([C@@H](C)CC(=O)O)ccc2N(CC(C)C)CC(C)C)no1 [Example 44, (S)-3-(4-(diisobutylamino)-3-(3-(5-methylisoxazol-3-yl)ureido)phenyl)butanoic acid]
0.0007 µM | CC(C)CN(CC(C)C)c1ccc(C(CC(=O)O)C(F)(F)F)cc1NC(=O)Nc1ccc(F)cc1F (centres unmarked) [Example 30, 3-(3-(3-(2,4-difluorophenyl)ureido)-4-(diisobutylamino)phenyl)-4,4,4-trifluorobutanoic acid]
0.029 µM | CC(C)CN(CC(C)C)c1ccc([C@@H](C)CC(=O)O)cc1NC(=O)Nc1cncnc1 [Example 38, (S)-3-(4-(diisobutylamino)-3-(3-(pyrimidin-5-yl)ureido)phenyl)butanoic acid]
0.011 µM | CC(C)CN(CC(C)C)c1ccc([C@H](C)CC(=O)O)cc1NC(=O)Nc1cncnc1 [Example 37, (R)-3-(4-(diisobutylamino)-3-(3-(pyrimidin-5-yl)ureido)phenyl)butanoic acid]
0.022 µM | Cc1ncc(NC(=O)Nc2cc([C@H](C)CC(=O)O)ccc2N(CC(C)C)CC(C)C)cn1 [Example 40, (R)-3-(4-(diisobutylamino)-3-(3-(2-methylpyrimidin-5-yl)ureido)phenyl)butanoic acid]
0.017 µM | Cc1ccc(NC(=O)Nc2cc([C@@H](C)CC(=O)O)ccc2N(CC(C)C)CC(C)C)cc1 [Example 43, (S)-3-(4-(diisobutylamino)-3-(3-(p-tolyl)ureido)phenyl)butanoic acid]
0.005 µM | CC(C)CN(CC(C)C)c1ccc([C@H](C)CC(=O)O)cc1NC(=O)Cc1ccc(C#N)cc1 [Example 45, (R)-3-(3-(2-(4-cyanophenyl)acetamido)-4-(diisobutylamino)phenyl)butanoic acid]
0.003 µM | Cc1cc(NC(=O)Nc2cc(C(C)CC(=O)O)ccc2N(CC(C)C)CC(C)C)on1 (racemic) [Example 13, 3-(4-(diisobutylamino)-3-(3-(3-methylisoxazol-5-yl)ureido)phenyl)butanoic acid]
0.169 µM | Cc1ncc(NC(=O)Nc2cc([C@@H](C)CC(=O)O)ccc2N(CC(C)C)CC(C)C)cn1 [Example 39, (S)-3-(4-(diisobutylamino)-3-(3-(2-methylpyrimidin-5-yl)ureido)phenyl)butanoic acid]

— patent publication US9624188B2, “IDO inhibitors” (BRISTOL-MYERS SQUIBB COMPANY, priority 2013, dated 2017)
